Measured values as given in US6992169B2, “Carrier based drug delivery system” (Cyclacel Limited, priority 1998, dated 2006).

Assay: Carcinoma cell line panel, SRB-assay
Description: After incubation for 96 h, cytotoxicity was assessed using a standard SRB-assay.

Question: For CC[C@H](C)[C@H](NC(=O)[C@H](CCCCN)NC(=O)[C@@H](NC(=O)[C@H](CCC(N)=O)NC(=O)[C@H](CCCNC(=N)N)NC(=O)[C@@H](N)CSC1CC(=O)N(CCC(=O)O[C@H]2C[C@H]3OC[C@@]3(OC(C)=O)[C@H]3[C@H](OC(=O)c4ccccc4)[C@]4(O)C[C@H](OC(=O)[C@H](O)[C@@H](NC(=O)c5ccccc5)c5ccccc5)C(C)=C([C@@H](OC(C)=O)C(=O)[C@]23C)C4(C)C)C1=O)[C@@H](C)CC)C(=O)N[C@@H](Cc1c[nH]c2ccccc12)C(=O)N[C@@H](Cc1ccccc1)C(=O)N[C@@H](CCC(N)=O)C(=O)N[C@@H](CC(N)=O)C(=O)N[C@@H](CCCNC(=N)N)C(=O)N[C@@H](CCCNC(=N)N)C(=O)N[C@@H](CCSC)C(=O)N[C@@H](CCCCN)C(=O)N[C@@H](Cc1c[nH]c2ccccc12)C(=O)N[C@@H](CCCCN)C(=O)N[C@@H](CCCCN)C(=O)O (stereo partly shown) [7-Paclitaxel Vector Conjugate], which IC50 at 96 h is on record?
Answer: The IC50 at 96 h was over 25 µM.
